Measured values as given in the METLIN SMRT retention time set (Domingo-Almenara et al. 2019).

Experiment: gradient 5% acetonitrile 3 min, to 50% in 2 min, to 85% in 15 min, held 3 min, 100 µL/min
Details: column: Zorbax Extend-C18 2.1 x 50 mm; eluents: water / acetonitrile, 0.1% formic acid
Method in brief: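 Each retention time is based on an adduct peak selected computationally and verified by manual inspection. Measurements used HPLC–quadrupole time-of-flight mass spectrometry in positive and negative ionization mode on mixtures of ~100 pure standards. Chromatography ran on a Zorbax Extend-C18 column (2.1 × 50 mm, 1.8 μm) at 100 μL/min with water and acetonitrile, each containing 0.1% formic acid, and dead and dwell volumes of 40 μL and 900 μL.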

Structure (SMILES)	RP-LC retention time [s]
COc1ccc(NC(=O)N2CCc3cn(CC(C)C)c4cccc(c34)C2)cc1	1030
Cc1nn(C(C)C(=O)Nc2ccc(Cl)cc2)c(=O)c2c(-n3cccc3)n(-c3ccccc3)nc12 (stereo not drawn)	1160
Cc1cccc(OCC(=O)N2CCc3cc(-c4ccno4)ccc32)c1	974
CCOc1ccc(-n2c(=O)c3sccc3n(Cc3nc(-c4ccc(F)cc4)no3)c2=O)cc1	982
O=C(Nc1ccccc1-c1cn2c(CN3CCNCC3)csc2n1)c1cnc2ccccc2n1	783
COc1cc(CN2CCc3nc(N4CCN(c5ccccn5)CC4)ncc3C2)cc(OC)c1OC	567
O=C(NCCn1cnc(-c2ccccc2)cc1=O)c1ccc2nsnc2c1	659
CCc1nc2onc(C)c2c(=O)n1CC(=O)NCC(C)c1ccccc1 (stereo not drawn)	832
O=c1c2sccc2n(Cc2nc(-c3ccc(Br)cc3)no2)c(=O)n1Cc1ccccc1	1200
CC(C)N1C(=O)c2cccnc2Sc2cc(NC(=O)C(C)(C)C)ccc21	828
CCOc1ccc2cccc(NC(=O)Cc3cccs3)c2n1	1130
CCc1nccn1Cc1nc(-c2cccc(F)c2)no1	625
CCC(C)C(NC(=O)CCc1ccccc1OC)C(=O)Nc1nc2ccccc2[nH]1 (stereo not drawn)	783
COc1ccc(-n2nc3c(N4CCCC(C(=O)NCc5ccccn5)C4)nnc(C)c3c2C)cc1 (stereo not drawn)	591
Fc1ccc(-c2csc(Nc3ccc(Br)cn3)n2)cc1	1230
Cc1cc(C)cc(Nc2c(-c3cccc(O)c3)nc3ncccn23)c1	719
CCOC(=O)c1c(C)[nH]c(CCC(=O)NCc2ccc(SC)cc2)c1C	714
COc1ccc(-c2csc3c(=O)n(Cc4cccc(OC)c4)cnc23)cc1	1030
CCOC(=O)c1ccc(NS(=O)(=O)c2c[nH]c3ncccc23)cc1	734
CCn1cc(-c2nc(C(=O)Nc3ccc(C)cc3F)cs2)c2cccnc21	983

Structure (SMILES)	RP-LC retention time [s]
CCOc1ccc(C2Cn3nnc(-c4nc(-c5ccccc5OCC)no4)c3CO2)cc1 (stereo not drawn)	1200
CCN1C(=O)c2cccnc2Sc2cc(NC(=O)Cc3ccc(C)cc3)ccc21	855
COCCNC(=O)CCCN1C(=O)c2ccccc2Sc2ncccc21	634
CCn1cc(-c2nc(C)c(C(=O)Nc3ccccc3)s2)c2cccnc21	965
CCC(C)OC(=O)c1[nH]c2c(c1C)C(=O)CC(c1ccc(N(C)C)cc1)C2 (stereo not drawn)	764
O=C(Nc1ccc(Cl)c([N+](=O)[O-])c1)Nc1nc2ccccc2s1	1050
COCCNC(=O)c1cc(C)nc2ccc(Br)cc12	636
O=S(=O)(NCc1nc(-c2cccc(-c3csc(C4CC4)n3)c2)no1)c1ccccc1	1080
Cc1cc2nn(CC(=O)Nc3ccc(C(C)C)cc3)c(=O)n2c(-c2ccccc2)n1	862
Cc1ccccc1-c1noc(Cn2nc(-c3ccc4c(c3)OCO4)ccc2=O)n1	943
O=C1C2N=NN(c3cccc(F)c3)C2C(=O)N1c1ccccc1 (stereo not drawn)	925
COc1cc(C(C[N+](=O)[O-])c2c(-c3ccccc3)[nH]c3ccccc23)cc(OC)c1OC (stereo not drawn)	952
Cc1nnc2c(NC(=O)c3ccsc3)cccn12	606
CCc1nc2ccc(-c3noc(C(C)NC(=O)c4ccco4)n3)cc2n1CC (stereo not drawn)	621
COc1ccc(OC)c(S(=O)(=O)NC(C)c2ccccc2)c1 (stereo not drawn)	845
COc1ccc(NC(=O)c2nnc(CSCC(=O)NCCc3c[nH]c4ccccc34)s2)cc1	859
CC(NC(=O)c1ccco1)c1nc(-c2ccc(N3CCOCC3)cc2)no1 (stereo not drawn)	757
CCc1ccc(C2CC(=O)Nc3c(S(=O)(=O)c4ccccc4)csc32)cc1 (stereo not drawn)	1060
Cc1ccc(-n2c(=O)c3sccc3n(Cc3nc(-c4ccc(C)c(C)c4)no3)c2=O)cc1	1150
COC[C@@H]1[C@H](C(=O)NCCC(C)C)CCC(=O)N1C	643

The remaining lines, values ahead:

RP-LC retention time [s]	Structure (SMILES)
1200	O=S(=O)(c1cc(-c2noc(C3CCCC3)n2)cs1)N1CCOCC1
732	CC(C)NC(=O)NCCC1CCN(S(=O)(=O)c2ccccc2)CC1
1240	CCOC(=O)c1noc2ncnc(NCCCN3CCCc4ccccc43)c12
1090	CCOc1nc2ccccc2nc1N1CCCC(C(=O)NCc2ccccc2)C1 (stereo not drawn)
738	Cc1ccccc1S(=O)(=O)N1CC[C@@H]2CN(c3cnccn3)[C@@H]2C1
736	O=C(Nc1ccc(F)cc1)C1CCCN(c2cnc3nccnc3c2)C1 (stereo not drawn)
881	COc1ccc(-c2noc(C3CC(=O)N(c4ccc5c(c4)OCO5)C3)n2)cc1 (stereo not drawn)
792	CCOC(=O)c1[nH]c(C)c(CCC(=O)N2CCC(C(=O)NC(C)c3ccccc3)CC2)c1C (stereo not drawn)
754	CCc1nc(N2CCC(C(=O)NCc3ccccc3C(F)(F)F)CC2)c2c(C)scc2n1
921	CCN(CC)S(=O)(=O)c1ccc2c(c1)CC(C(=O)NCCC1=CCCCC1)N2C(C)=O (stereo not drawn)
763	COc1ccc(CCNC(=O)C2CN(S(C)(=O)=O)CC23CCCCC3)cc1OC (stereo not drawn)
780	Cc1nn(-c2ccccc2)c2c1N(CC(=O)NC1CCCC1)C(=O)CS2
614	COc1ccc(NC(=O)c2cc3c(s2)CN(C2CCCC2)C3)c(C)c1
574	CCc1nnc2nc(N3CCN(C(=O)c4cccc(N(C)C)c4)CC3)cc(C)n12
778	COc1ccc(C2C(C(=O)OC(C)C)=C(C)NC3=C2C(=O)CCC3)c(OC)c1OC (stereo not drawn)
608	O=C(Cc1cccs1)NC1CCN(c2cc(N3CCCC3)cnn2)C1 (stereo not drawn)
782	O=C(CN1C(=O)COc2ccc(C(=O)N3CCCCC3)cc21)NC1CCCCCC1
841	Cc1ccc(-c2nc(CN3CCCC3=O)no2)cc1C
731	C=CCNC(=O)C1CCCN(C(=O)Nc2ccc(NC(=O)Nc3ccccc3F)cc2)C1 (stereo not drawn)
663	Cc1ccc(C)c(NS(=O)(=O)c2cc3n(c2)CCCNC3=O)c1
760	Cc1cc2c(c(=O)n(-c3ccccc3)c(=O)n2CC(=O)Nc2ccc3c(c2)OCO3)n1C
1070	CC(C)c1ccc(NC(=O)CC2=C3CCCCC3N(C(C)C)C2=O)cc1 (stereo not drawn)
721	O=C(NCc1ccc2c(c1)OCO2)c1csc(NS(=O)(=O)c2cccs2)n1
1230	O=C(Nc1ccc(F)c(Cl)c1)C1CCCN(c2ncc(-c3ccc(F)cc3)cn2)C1 (stereo not drawn)

RP-LC retention time [s]	Structure (SMILES)
654	COc1cccc(CNC(=O)N2CCCC(Cn3cnc4cccnc43)C2)c1 (stereo not drawn)
785	COCCCNC(=O)N1CCCC1c1nc(-c2ccccc2C)no1 (stereo not drawn)
921	CSc1ccc(CNC(=O)CSc2nccc(N3CCN(c4cc(C)ccc4C)CC3)n2)cc1
695	O=C(CCc1nc2ccccc2s1)NCC12CCCC=C1NC(=O)CC2 (stereo not drawn)
894	Cc1cccc(CNC(=O)c2cccc(C3CCCN(C(=O)NC(C)C)C3)c2)c1 (stereo not drawn)
638	Cc1cc2c(cc1S(=O)(=O)N1CCCC1C(=O)N1CCOCC1)OC(C)C(=O)N2 (stereo not drawn)
744	COc1ccccc1NC(=O)N1CCC(CNC(=O)c2ccc(Br)o2)CC1
575	COc1cccc(CCC(=O)N2CCc3nc[nH]c3C2)c1
555	Cc1nc(C(=O)Nc2ccc(N3CCOCC3)cc2)c(C)n1C1CCN(C)CC1
611	CCc1nnc2nc(N3CCN(C(=O)c4ccc5c(c4)OCO5)CC3)cc(C)n12
629	COc1cc(NC(=O)NC2CCN(c3cc(N4CCOCC4)cnn3)C2)cc(OC)c1 (stereo not drawn)
1060	CCNc1nc(-c2ccc(C3CCCCC3)cc2)cs1
872	COc1cccc(-n2c(N3CCCC(C(=O)NCCC(C)C)C3)nc3ccsc3c2=O)c1 (stereo not drawn)
668	CCOC(=O)C1=C(CN2CCN(C(C)CC)CC2)NC(=O)NC1c1ccc(OC(C)C)cc1 (stereo not drawn)
718	O=C(NCc1ccc(C(F)(F)F)cc1)C1CCN(c2nnc3ccc(Cl)cn23)CC1
703	COc1ccc(C(=O)NC2CCN(c3cc(-c4cccs4)[nH]n3)C2)cc1 (stereo not drawn)
682	CCN1CCN(Cc2ccc(C(=O)NCc3cc(F)cc(F)c3)cc2)C(=O)C1=O
620	Cc1cc(OCC(=O)NCc2ccccc2Cl)nc(N2CCCC2)n1
937	O=C(c1ccc(-c2ccc3c(c2)CCN3S(=O)(=O)c2cccc(F)c2)cc1)N1CCOCC1
764	O=C(Nc1ccc2c(c1)OCCO2)C1CC(=O)N(CCc2c[nH]c3ccc(F)cc23)C1 (stereo not drawn)
966	Cc1ccc(S(=O)(=O)N2C(=O)CCC2C(=O)NCc2ccc(Cl)cc2)cc1C (stereo not drawn)
644	CS(=O)(=O)N1CCOc2ccc(CCC(=O)NC3CCS(=O)(=O)C3)cc2C1 (stereo not drawn)
629	COc1ccc(S(=O)(=O)N2CCCC2)cc1C(=O)NC1CCS(=O)(=O)C1 (stereo not drawn)
613	Cc1cc(=O)n(CC(=O)NCc2ccc(Cl)cc2)c(N)n1
